These results are taken from US20170247465A1, “COMBINATION THERAPY FOR TREATMENT OF CANCER” (OncoMed Pharmaceuticals, Inc., priority 2014, published 2017).

Molecules are shown by their SMILES.

The subject of the assay is OMP-OV38 tumors. Kind of assay: Histology of treated OMP-OV38 tumors. The format is in vivo, NOD/SCID mice. The note with it: paclitaxel alone; data not shown. On the procedure:
The treated OMP-OV38 tumors were analyzed by histology.

`CC(=O)O[C@H]1C(=O)[C@@]2(C)[C@H]([C@H](OC(=O)c3ccccc3)[C@]3(O)C[C@H](OC(=O)[C@H](O)[C@@H](NC(=O)c4ccccc4)c4ccccc4)C(C)=C1C3(C)C)[C@]1(OC(C)=O)CO[C@@H]1C[C@@H]2O` [paclitaxel]: the “histology of the tumors” value is given as “did not show these effects”.
